Where two headings read alike, the source gives them in different places.
What was measured:
PAK1 = PAK1 (Homo sapiens, UniProt Q13153); assay: PAK1 IC50 determination, Z'-LYTE kinase assay; type: biochemical; conditions: [ATP]=10×Km; [PAK1]=1 ng; read-out: IC50 against PAK1
Experimental: Protocol for determining IC50 Values for test compounds at [ATP]=10×Km; [PAK1]=1 ng
Add 2 ml 5× Kinase Buffer to 8 ml water to prepare […] of Kinase Buffer A.
• Thaw the concentrated stock of test compound at room temperature. • 2.1. Add 10 μl of 100% DMSO to row A, columns 2-11 (wells A2-A11) in a 96-well assay plate (non-binding surface). To well A1, add 15 μl of the concentrated stock of test compound. This will be the highest concentration of test compound in a 10-point titration curve. Use a concentration that is 100× the final desired 1× concentration per 10 μl kinase reaction. For example, if the final 1× concentration of 100 μM is desired for the highest concentration of test compound in the 10 point titration curve, add 15 μl of 10 mM test compound to well A1. • 2.2. Titrate the 100× test compound three-fold across the assay plate from well A1 to well A10. To perform this threefold titration, transfer 5 μl of the 100× test compound from well A1 to the 10 μl of 100% DMSO in well A2. Repeat for wells A2-A10. Discard the final 5 μl from well A10 so that all wells contain 10 μl. […] This completes the 10-point three-fold titration of test compound at 100× concentration. • 2.3. Transfer a 2 μl aliquot of the 100× test compound titration series from each well in row A of the 96-well assay plate (wells A1-A12) to row B (wells B1-B12). Add 48 μl of complete kinase reaction buffer to each well in row B to dilute the 100× three-fold titration series of test compound to 4× (the DMSO will also be diluted, to 4%). • 2.4. Transfer 2.5 μl of the 4× concentrated three-fold titration series of test compound from row B of the 96-well assay plates to quadruplicate wells of a 384-well assay plate. Each well in columns 21-24 should contain 2.5 μl of 4% DMSO (no compound) in complete kinase reaction buffer. This 2.5 μl addition of 4× test compound in 4% DMSO produces a 1× concentration of test compound in 1% DMSO for a 10 μl kinase reaction. • 2.5. Dispense 2.5 μl of complete kinase reaction buffer to each well in columns 23-24 of the 384-well assay plate.
• 1. Prepare 500 μl of 4 μM Z′-LYTE® Phospho-peptide by adding 2 μl of 1 mM Z′-LYTE® Phospho-peptide to 498 μl of complete kinase reaction buffer. • 2. Dispense 5 μl of the 4 μM Z′-LYTE® Phospho-peptide (2×) to each well in column 24 of the 384-well assay plate. • 3. Prepare 1000 μl of 4 μM Z′-LYTE® Peptide Substrate (2×)/2× kinase solution in complete kinase reaction buffer. If necessary, prepare an intermediate dilution of the kinase in complete kinase reaction buffer before preparing the Z′-LYTE™ Peptide Substrate (2×)/2× kinase solution. Use the appropriate 2× kinase concentration in the assay to phosphorylate 20-50% of the 0% inhibition controls at the ATP concentration desired. • 4. […]

[1] = tested on: other PAK family members (PAK2, PAK3, PAK4, PAK6, PAK7); assay: Inhibitory activity against other PAK family members; type: biochemical; conditions: in words
Experimental: A cell-based small molecule screening with 50,024 compounds was performed based on AML cell lines that grow in a PAK1-dependent manner, which has been previously described (Pandolfi et al., 2015). This was followed by single point PAK1 enzymatic activity screening against 360 compounds. Forty-six identified compounds that scored positive in this assay were subjected to enzymatic activity assays against other PAK family kinases including PAK2, PAK3, PAK4, PAK6, and PAK7. […] Those compounds were studied in further detail and key biochemical, pharmacokinetic, and structure-activity characteristics were determined.

larger kinase panel = assay: Selectivity against a larger kinase panel; type: binding; conditions: in words
[2] = Microsomal stability, human (HLM); type: in vitro ADME; conditions: human microsomes; for CLh: in mL/min/kg (unit assumed); for microsomal CLint / half-life: liver microsomes; for half-life: read-out: t½
[3] = Microsomal stability, rat (RLM); type: in vitro ADME; conditions: rat microsomes; for microsomal CLint / half-life: liver microsomes; for half-life: read-out: t½; for CLh: in mL/min/kg (unit assumed)
[4] = Microsomal stability, mouse (MLM); type: in vitro ADME; conditions: for microsomal CLint / half-life: liver microsomes; for half-life: read-out: t½; for ER / CLh: mouse microsomes; for CLh: in mL/min/kg (unit assumed)
[5] = Pharmacokinetic (PK) assessment in rats; type: in vivo; conditions: for C0 / Cmax / MRT inf / Tmax / clearance / MRT last / half-life / AUC(0-inf) / AUC(0-t) / Vd / CL/F / Vd/F: rat, plasma; for MRT last: read-out: MRTlast; for half-life: read-out: T ½ (converted); for Fabs, % (from AUCINF) / Fabs, % (from AUClast): PO 10 mg/kg versus IV 2 mg/kg; for Vd/F: read-out: Vz/F
[6] = iv, 2 mg/kg, IV, 2 mg/kg, mean, read-out: AUCINF
[7] = iv, 2 mg/kg, IV, 2 mg/kg, mean, read-out: AUClast
[8] = iv, 2 mg/kg, IV, 2 mg/kg, mean, read-out: Vss
[9] = iv, 2 mg/kg, IV, 2 mg/kg, mean, read-out: Vz
[10] = po, 10 mg/kg, PO, 10 mg/kg, mean, read-out: AUClast
[11] = iv, 2 mg/kg, IV, dose 2 mg/kg, summary section, no unit printed there, read-out: AUCINF, IV plasma
[12] = iv, 2 mg/kg, IV, dose 2 mg/kg, summary section, no unit printed there, read-out: AUClast, IV plasma
[13] = po, 10 mg/kg, PO, 10 mg/kg, mean, read-out: AUCINF
[14] = po, 10 mg/kg, PO, dose 10 mg/kg, summary section, no unit printed there, read-out: AUCINF, PO plasma
[15] = po, 10 mg/kg, PO, dose 10 mg/kg, summary section, no unit printed there, read-out: AUClast, PO plasma

Sequence of PAK1 (Q13153 whole entry): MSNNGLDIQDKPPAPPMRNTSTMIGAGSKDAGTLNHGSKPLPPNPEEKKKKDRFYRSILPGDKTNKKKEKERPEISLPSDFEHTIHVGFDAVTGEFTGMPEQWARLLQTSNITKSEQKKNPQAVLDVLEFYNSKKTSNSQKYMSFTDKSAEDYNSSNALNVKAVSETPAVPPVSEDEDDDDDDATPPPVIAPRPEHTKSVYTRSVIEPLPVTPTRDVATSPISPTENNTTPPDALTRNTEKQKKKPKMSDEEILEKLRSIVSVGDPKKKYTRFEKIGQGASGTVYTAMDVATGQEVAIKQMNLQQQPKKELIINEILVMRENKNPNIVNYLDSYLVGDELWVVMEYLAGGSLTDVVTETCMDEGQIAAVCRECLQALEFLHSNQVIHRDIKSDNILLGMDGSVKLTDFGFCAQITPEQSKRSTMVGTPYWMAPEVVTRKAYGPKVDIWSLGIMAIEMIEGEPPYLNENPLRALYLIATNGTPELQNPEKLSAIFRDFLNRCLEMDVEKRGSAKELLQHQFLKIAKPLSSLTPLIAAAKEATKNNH

CSc1ccc(-c2nc3cccc(C)n3c2Nc2ccc3c(c2)OCCO3)cc1 [Compound C273-0489]
IC50 (PAK1): 470 nM | inhibitory activity against any of the other PAK family members [1]: no significant inhibitory activity | inhibition against a larger kinase panel (larger kinase panel): no significant inhibition | ER [2]: 0.89 | CLh [2]: 19.24 | microsomal CLint [2]: 199 µL/min/mg | half-life [2]: 13.9 min | microsomal CLint [3]: 1830 µL/min/mg | half-life [3]: 1.51 min | ER [3]: 0.98 | CLh [3]: 54.10 | microsomal CLint [4]: 664 µL/min/mg | half-life [4]: 4.18 min | ER [4]: 0.97 | CLh [4]: 87.00 | K el ([5]; IV, 2 mg/kg, mean): 0.07 h⁻¹ | C0 ([5]; IV, 2 mg/kg, mean): 71.7 ng/mL | Cmax ([5]; IV, 2 mg/kg, mean): 53.4 ng/mL | MRT inf ([5]; IV, 2 mg/kg, mean): 736 min | Tmax ([5]; IV, 2 mg/kg, mean): 4.8 min | clearance ([5]; IV, 2 mg/kg, mean): 214 mL/min/kg | MRT last ([5]; IV, 2 mg/kg, mean): 391 min | half-life ([5]; IV, 2 mg/kg, mean): 636 min | Cmax ([5]; PO, 10 mg/kg, mean): 17.4 ng/mL | Tmax ([5]; PO, 10 mg/kg, mean): 200 min | MRT last ([5]; PO, 10 mg/kg, mean): 238 min | AUC(0-inf) [5, 6]: 156 ng·h/mL | AUC(0-t) [5, 7]: 129 ng·h/mL | Vd [5, 8]: 158 L/kg | Vd [5, 9]: 197 L/kg | AUC(0-t) [5, 10]: 92.7 ng·h/mL

CCC1CCCCN1c1cc(C)nc2nc(-c3ccc(C)cc3)nn12 (stereo not drawn) [Compound D245-0091, 7-(2-Ethylpiperidin-1-yl)-5-methyl-2-(p-tolyl)-[1,2,4]triazolo[1,5-a]pyrimidine]
IC50 (PAK1): 5000 nM | inhibitory activity against any of the other PAK family members [1]: no significant inhibitory activity | inhibition against a larger kinase panel (larger kinase panel): no significant inhibition | ER [2]: 0.83 | CLh [2]: 18.11 | microsomal CLint [2]: 114 µL/min/mg | half-life [2]: 24.3 min | microsomal CLint [3]: 159 µL/min/mg | half-life [3]: 17.4 min | ER [3]: 0.84 | CLh [3]: 46.14 | microsomal CLint [4]: 243 µL/min/mg | half-life [4]: 11.4 min | ER [4]: 0.91 | CLh [4]: 82.27 | K el ([5]; IV, 2 mg/kg, mean): 0.42 h⁻¹ | Fabs, % (from AUCINF) [5]: 9.4% | Fabs, % (from AUClast) [5]: 9.1% | K el ([5]; PO, 10 mg/kg, mean): 0.37 h⁻¹ | C0 ([5]; IV, 2 mg/kg, mean): 1010 ng/mL | Cmax ([5]; IV, 2 mg/kg, mean): 740 ng/mL | MRT inf ([5]; IV, 2 mg/kg, mean): 101 min | Tmax ([5]; IV, 2 mg/kg, mean): 4.8 min | clearance ([5]; IV, 2 mg/kg, mean): 46.8 mL/min/kg | MRT last ([5]; IV, 2 mg/kg, mean): 87.6 min | half-life ([5]; IV, 2 mg/kg, mean): 99.6 min | CL/F ([5]; PO, 10 mg/kg, mean): 525 mL/min/kg | Cmax ([5]; PO, 10 mg/kg, mean): 85.7 ng/mL | MRT inf ([5]; PO, 10 mg/kg, mean): 181 min | Tmax ([5]; PO, 10 mg/kg, mean): 70.2 min | MRT last ([5]; PO, 10 mg/kg, mean): 151 min | half-life ([5]; PO, 10 mg/kg, mean): 112 min | Vd/F ([5]; PO, 10 mg/kg, mean): 84.8 L/kg | AUC(0-inf) [5, 6]: 714 ng·h/mL | AUC(0-t) [5, 7]: 695 ng·h/mL | Vd [5, 8]: 4.77 L/kg | Vd [5, 9]: 6.74 L/kg | AUC(0-inf) [5, 11]: 714 ng·h/mL | AUC(0-t) [5, 12]: 695 ng·h/mL | AUC(0-inf) [5, 13]: 334 ng·h/mL | AUC(0-t) [5, 10]: 315 ng·h/mL | AUC(0-inf) [5, 14]: 334 ng·h/mL | AUC(0-t) [5, 15]: 315 ng·h/mL

COc1cccc(-c2oncc2CN2CCN(C(C)=O)CC2)c1 [Compound T813-0242, 1-(4-((5-(3-Methoxyphenyl)isoxazol-4-yl)methyl)piperazin-1-yl)ethanone]
IC50 (PAK1): 900 nM | inhibitory activity against any of the other PAK family members [1]: no significant inhibitory activity | inhibition against a larger kinase panel (larger kinase panel): no significant inhibition | ER [2]: 0.66 | CLh [2]: 14.31 | microsomal CLint [2]: 38.8 µL/min/mg | half-life [2]: 71.4 min | microsomal CLint [3]: 34 µL/min/mg | half-life [3]: 81.5 min | ER [3]: 0.53 | CLh [3]: 28.97 | microsomal CLint [4]: 44.4 µL/min/mg | half-life [4]: 62.4 min | ER [4]: 0.66 | CLh [4]: 59.41 | K el ([5]; IV, 2 mg/kg, mean): 3.03 h⁻¹ | Fabs, % (from AUCINF) [5]: 3.8% | Fabs, % (from AUClast) [5]: 3.8% | K el ([5]; PO, 10 mg/kg, mean): 1.05 h⁻¹ | C0 ([5]; IV, 2 mg/kg, mean): 3150 ng/mL | Cmax ([5]; IV, 2 mg/kg, mean): 2210 ng/mL | MRT inf ([5]; IV, 2 mg/kg, mean): 18 min | Tmax ([5]; IV, 2 mg/kg, mean): 4.8 min | clearance ([5]; IV, 2 mg/kg, mean): 36.7 mL/min/kg | MRT last ([5]; IV, 2 mg/kg, mean): 17.4 min | half-life ([5]; IV, 2 mg/kg, mean): 13.8 min | CL/F ([5]; PO, 10 mg/kg, mean): 974 mL/min/kg | Cmax ([5]; PO, 10 mg/kg, mean): 202 ng/mL | MRT inf ([5]; PO, 10 mg/kg, mean): 50.4 min | Tmax ([5]; PO, 10 mg/kg, mean): 19.8 min | MRT last ([5]; PO, 10 mg/kg, mean): 45 min | half-life ([5]; PO, 10 mg/kg, mean): 41.4 min | Vd/F ([5]; PO, 10 mg/kg, mean): 56.2 L/kg | AUC(0-inf) [5, 6]: 911 ng·h/mL | AUC(0-t) [5, 7]: 909 ng·h/mL | Vd [5, 8]: 0.65 L/kg | Vd [5, 9]: 0.73 L/kg | AUC(0-inf) [5, 11]: 911 ng·h/mL | AUC(0-t) [5, 12]: 909 ng·h/mL | AUC(0-inf) [5, 13]: 175 ng·h/mL | AUC(0-t) [5, 10]: 171 ng·h/mL | AUC(0-inf) [5, 14]: 175 ng·h/mL | AUC(0-t) [5, 15]: 171 ng·h/mL

— US11065251B2, “PAK1 inhibitors and uses thereof” (Albert Einstein College of Medicine, priority 2016, dated 2021)
